Experimental data: ChEMBL document CHEMBL6120940, “Discovery of N-Aryl-N'-[4-(aryloxy)cyclohexyl]squaramide-Based Inhibitors of LXR/SREBP-1c Signaling Pathway Ameliorating Steatotic Liver Disease: Navigating the Role of SIRT6 Activation” (J Med Chem, 2024)
Calls of active or inactive are those of the source. No cut-off for these calls is given here.

Key:
HepG2 [1] = experiment: Downregulation of FASN gene expression in human HepG2 cells in presence of T0901317 by RNA sequencing analysis; assay type: functional, cell-based
HepG2 [2] = experiment: Lipid lowering effect on palmitic acid induced lipid accumulation in human HepG2 cells at 5 uM incubated for 30 mins by Oil red O staining based analysis; assay type: functional, cell-based
Mus musculus [3] = experiment: Anti-lipogenic activity against high fat died induced male C57BL/6J mouse obesity model assessed as downregulation of Srebp-1c level at 15 mg/kg, po administered three times per week and measured after 5 weeks by RT-qPCT analysis; assay type: functional, organism-based
Mus musculus [4] = experiment: Anti-lipogenic activity against high fat died induced male C57BL/6J mouse obesity model assessed as reduction in lipid droplet formation at 15 mg/kg, po administered three times per week and measured for 5 weeks by H and E staining based analysis; assay type: functional, organism-based
Hepatocyte [5] = experiment: Effect on Acad-1 gene expression in mouse hepatocyte; assay type: functional, cell-based
[6] = target: NAD-dependent protein deacylase sirtuin-6 (Homo sapiens) (UniProt Q8N6T7); experiment: Activation of recombinant SIRT6 (unknown origin) using fluoro-substrate peptide as substrate at 2.5 to 400 uM by fluorescence based analysis; conditions: filed as activator, dose 2.5-400 µM
[7] = Cmax in 16 hrs fasted ICR mouse at 20 mg/kg, po measured upto 8 hrs by LC-MS/MS analysis; assay type: ADME, organism-based; conditions: in vivo
HepG2 [8] = experiment: Downregulation of SREBP-1c expression level in nucleus of human HepG2 cells at 10 uM pretreated with compound for 30 mins followed by T0901317 addition and measured after 12 hrs by immunoblot analysis; assay type: functional, cell-based; conditions: time 12.5 hrs
HepG2 [9] = experiment: Downregulation of LXRalpha expression level in human HepG2 cell lysate at 10 uM preincubated with compound for 30 mins followed by T0901317 addition and measured after 24 hrs by immunoblot analysis; assay type: functional, subcellular; conditions: time 24.5 hrs
HepG2 [10] = experiment: Downregulation of FASN mRNA level in human HepG2 cells at 10 uM pretreated with compound for 30 mins followed by T0901317 addition and measured after 12 hrs by RT-qPCR analysis; assay type: functional, cell-based; conditions: time 12.5 hrs
Mus musculus [11] = experiment: Anti-lipogenic activity against high fat died induced male C57BL/6J mouse obesity model assessed as downregulation of Cxcl10 mRNA level at 15 mg/kg, po administered three times per week and measured after 5 weeks by RT-qPCT analysis; assay type: functional, organism-based
Hepatocyte [12] = experiment: Effect on Ppara gene expression in mouse hepatocyte; assay type: functional, cell-based
Hepatocyte [13] = experiment: Lipid lowering effect on palmitic acid induced lipid accumulation in mouse Hepatocyte at 5 uM incubated for 30 mins by Oil red O staining based analysis; assay type: functional, cell-based
CYP1A2 = target: T1, CYP1A2 (Homo sapiens, UniProt P05177); experiment: Inhibition of CYP1A2 in human liver microsomes at 10 uM using phenacetin as substrate preincubated for 5 mins followed by NADPH generating system addition and measured after 15 mins relative to control; assay type: ADME, Microsome; conditions: probe phenacetin, time 20 min
T1 sequence (P05177 whole entry): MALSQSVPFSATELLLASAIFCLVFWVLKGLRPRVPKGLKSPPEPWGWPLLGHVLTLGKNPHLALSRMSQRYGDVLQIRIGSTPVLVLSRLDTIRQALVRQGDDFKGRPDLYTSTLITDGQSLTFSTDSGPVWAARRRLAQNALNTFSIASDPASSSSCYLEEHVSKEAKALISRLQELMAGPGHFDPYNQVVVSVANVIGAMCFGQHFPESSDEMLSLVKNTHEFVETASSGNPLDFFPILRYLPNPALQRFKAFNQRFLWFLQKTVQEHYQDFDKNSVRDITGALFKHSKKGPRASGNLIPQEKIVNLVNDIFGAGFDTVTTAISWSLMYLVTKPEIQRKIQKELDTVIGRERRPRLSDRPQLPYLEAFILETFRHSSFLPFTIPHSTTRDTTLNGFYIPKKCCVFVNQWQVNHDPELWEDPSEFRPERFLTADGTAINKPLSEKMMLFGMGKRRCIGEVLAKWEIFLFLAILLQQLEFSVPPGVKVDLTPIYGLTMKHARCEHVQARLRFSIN

[14] = target: T2, Oxysterols receptor LXR-alpha (Homo sapiens) (UniProt Q13133); experiment: Inhibition of LXRalpha in HEK293 cells expressing LXRE at 2.5 to 5 uM preincubated for 30 mins followed by T0901317 addition and measured after 24 hrs by Dual-glo luciferase assay; assay type: cell-based; conditions: dose 2.5-5 µM, time 24.5 hrs
T2 sequence (whole entry): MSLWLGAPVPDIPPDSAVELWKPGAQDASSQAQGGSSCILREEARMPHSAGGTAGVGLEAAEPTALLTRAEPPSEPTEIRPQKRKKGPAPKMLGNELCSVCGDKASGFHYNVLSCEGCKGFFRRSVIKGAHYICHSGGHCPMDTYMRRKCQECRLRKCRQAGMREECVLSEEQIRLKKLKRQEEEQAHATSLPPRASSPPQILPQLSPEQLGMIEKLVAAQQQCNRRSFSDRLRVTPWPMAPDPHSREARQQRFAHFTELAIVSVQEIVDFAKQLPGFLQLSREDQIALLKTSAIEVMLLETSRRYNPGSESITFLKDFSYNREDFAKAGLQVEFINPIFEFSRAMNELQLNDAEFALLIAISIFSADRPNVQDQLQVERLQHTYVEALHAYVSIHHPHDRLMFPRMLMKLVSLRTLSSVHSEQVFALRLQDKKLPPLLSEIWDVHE

HepG2 [15] = experiment: Downregulation of ACLY gene expression in human HepG2 cells in presence of T0901317 by RNA sequencing analysis; assay type: functional, cell-based
HepG2 [16] = experiment: Downregulation of acetylated histone H3K9 level in human HepG2 cells at 5 to 10 uM preincubated for 30 mins followed by OSS128167 addition and measured after 12 hrs; assay type: functional, cell-based; conditions: dose 5-10 µM, time 12.5 hrs
HepG2 [17] = experiment: Downregulation of SREBP-1c level in human HepG2 cells at 10 uM preincubated for 30 mins followed by OSS128167 addition and measured after 12 hrs; assay type: functional, cell-based; conditions: time 12.5 hrs
Hepatocyte [18] = experiment: Downregulation of Cd36 mRNA level in mouse Hepatocyte at 10 uM incubated for 30 mins followed by T0901317 addition by RT-qPCR analysis; assay type: functional, cell-based
[19] = Oral bioavailability in 16 hrs fasted ICR mouse at 20 mg/kg measured upto 8 hrs by LC-MS/MS analysis; assay type: ADME, organism-based; conditions: in vivo
HepG2 [20] = experiment: Downregulation of ACACA gene expression in human HepG2 cells in presence of T0901317 by RNA sequencing analysis; assay type: functional, cell-based
[21] = AUC infinity in 16 hrs fasted ICR mouse at 20 mg/kg, po measured upto 8 hrs by LC-MS/MS analysis; assay type: ADME, organism-based; conditions: in vivo
Mus musculus [22] = experiment: Anti-lipogenic activity against high fat died induced male C57BL/6J mouse obesity model assessed as downregulation of Acaca-gene level at 15 mg/kg, po administered three times per week and measured after 5 weeks by RT-qPCT analysis; assay type: functional, organism-based
[23] = Clearance in 16 hrs fasted ICR mouse at 2 mg/kg, iv measured upto 8 hrs by LC-MS/MS analysis; assay type: ADME, organism-based; conditions: in vivo
HepG2 [24] = experiment: Downregulation of FASN mRNA level in human HepG2 cells at 10 uM pretreated with compound for 30 mins followed by […] addition and measured after 12 hrs by RT-qPCR analysis; assay type: functional, cell-based; conditions: time 12.5 hrs
[25] = AUC infinity in 16 hrs fasted ICR mouse at 2 mg/kg, iv measured upto 8 hrs by LC-MS/MS analysis; assay type: ADME, organism-based; conditions: in vivo

Chain of NAD-dependent protein deacylase sirtuin-6 (Homo sapiens) (Q8N6T7 whole entry): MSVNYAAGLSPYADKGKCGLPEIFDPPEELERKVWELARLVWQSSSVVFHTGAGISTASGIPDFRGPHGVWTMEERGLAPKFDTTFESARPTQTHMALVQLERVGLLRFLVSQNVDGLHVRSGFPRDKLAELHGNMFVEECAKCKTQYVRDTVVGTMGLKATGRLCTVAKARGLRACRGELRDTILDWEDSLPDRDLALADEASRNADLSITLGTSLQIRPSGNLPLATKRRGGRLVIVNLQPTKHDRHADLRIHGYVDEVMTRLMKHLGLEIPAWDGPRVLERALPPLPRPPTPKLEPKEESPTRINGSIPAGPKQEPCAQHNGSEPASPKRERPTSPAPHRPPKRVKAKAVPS

Activity [6]: Active | Cmax [7]: 2300 ng/mL | inhibition at 0.25 h, 10 µM (CYP1A2): 98% | inhibition [14]: Active | bioavailability [19]: 11.2% | AUC(0-inf) [21]: 2890 ng·h/mL | clearance [23]: 13.3 mL/min/kg | AUC(0-inf) [25]: 2400 ng·h/mL
SMILES: COc1ccccc1Nc1c(N[C@H]2CC[C@H](Oc3ccc([N+](=O)[O-])cc3)CC2)c(=O)c1=O
Activity (HepG2 [1]): Active | Activity (HepG2 [2]): Active | Activity (Mus musculus [3]): Active | Activity (Mus musculus [4]): Active | Activity (Hepatocyte [5]): inactive | Activity (HepG2 [8]): Active | Activity (HepG2 [9]): Active | Activity (HepG2 [10]): Active | Activity (Mus musculus [11]): Active | Activity (Hepatocyte [12]): inactive | Activity (Hepatocyte [13]): Active | Activity (HepG2 [15]): Active | Activity (HepG2 [16]): inactive | Activity (HepG2 [17]): inactive | Activity (Hepatocyte [18]): inactive | Activity (HepG2 [20]): Active | Activity (Mus musculus [22]): Active | Activity (HepG2 [24]): Active
